Results on one compound are retold here after patent publication US10772886B2, “CXCR-2 inhibitors for treating crystal arthropathy disorders” (ARDEA BIOSCIENCES, INC., priority 2016, dated 2020).

The subject of one assay is neutrophils. As to the kind of experiment: Cell migration (chemotaxis) assay, neutrophil counts. The format is cell-based. The conditions noted are these: 10 μM; MSU-conditioned media; FIG. 1A.
The target of another assay is T1, CXCR-2 (Homo sapiens, UniProt P25025).
T1 sequence (P25025 1-360): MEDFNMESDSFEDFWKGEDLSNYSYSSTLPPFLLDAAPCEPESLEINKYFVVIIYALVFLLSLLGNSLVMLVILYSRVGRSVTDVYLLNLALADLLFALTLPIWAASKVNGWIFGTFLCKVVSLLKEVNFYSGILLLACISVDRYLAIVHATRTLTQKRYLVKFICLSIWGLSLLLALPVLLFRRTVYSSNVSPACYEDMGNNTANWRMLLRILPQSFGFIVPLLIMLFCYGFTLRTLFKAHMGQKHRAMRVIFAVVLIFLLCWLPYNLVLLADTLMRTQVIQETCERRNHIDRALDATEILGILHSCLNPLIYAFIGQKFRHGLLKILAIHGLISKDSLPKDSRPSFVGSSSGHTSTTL
To be noted: cited from earlier work.

In another assay the test system is PBMCs. As to the kind of experiment: Cell migration (chemotaxis) assay, PBMC counts. The assay is classed as cell-based. The conditions noted are these: 10 μM; MSU crystal conditioned media; FIG. 1B. The method, then:
Primary blood monocytes (PMBC) were obtained from the lymphocyte layer (buffy coat) of peripheral blood from normal donors. Each leukopack (Interstate Blood Bank) was diluted with an equal volume of PBS, and 35 mL of blood preparation was over-laid onto 15 mL of Ficoll-Paque™ PLUS (GE Healthcare Bio-Sciences). Tubes were centrifuged at 700×g without breaks for 30 minutes at room temperature. The buffy coat interface was removed, added to PBS (40 mL), and centrifuged at 300×g. Any remaining erythrocytes in the cell pellet were lysed by incubating cells in red blood cell lysis buffer (10 mL, R&D Systems) for 10 minutes at room temperature. Following lysis, PBS (40 mL) was added and the cells centrifuged for 5 minutes at 200×g. The pellet was washed once with PBS and re-suspended in complete RPMI and seeded onto a BD Falcon™ 100 mm tissue culture dish (Cat. No. 353003). After one hour, the media was aspirated and the adherent cells (predominantly monocytes) were harvested using a cell scraper and used in chemotaxis assays. Chemotaxis was assayed in 48-well plates with BD Falcon FluoroBlok Multiwell inserts with 3 μm pores (Cat. No. 351161 or 351162) coated with hFN. […] Fluorescence emitted from cells that had migrated to the bottom surface of the insert was measured at various time points. Cells labeled with Calcein AM were read at 485/530 nm (Ex/Em) wavelength. […]

Molecules are shown by their SMILES.

For the compound `O=C(Nc1ccc(Cl)c(S(=O)(=O)N2CCNCC2)c1O)Nc1cccc(F)c1Cl` [Compound 1, 1-(4-chloro-2-hydroxy-3-(piperazin-1-ylsulfonyl)phenyl)-3-(2-chloro-3-fluorophenyl)urea], the “inhibition of migration in neutrophils” value with neutrophils was “significant inhibition of migration”. Moreover, the “inhibit CXCR-2” value on CXCR-2 was “shown to inhibit CXCR-2”. The “inhibition in migration in PBMCs” value with PBMCs is listed as “significant inhibition in migration”.
